The text below walks through data of PubChem BioAssay (NCI).

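Where inhibition never reached the appropriate level, the endpoint shown equals the highest concentration tested. Otherwise, values were interpolated linearly from a five-concentration, 48-hour dose response in 96-well plates. The concentration for full growth arrest is given as TGI.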 A value given as a limit tells only on which side of the number the result lay.

Test systems include LXFL 529 NSCLC; DLD-1 colon; HOP-18 NSCLC; SNB-78 CNS; DMS 273 small cell lung; KM20L2 colon; XF 498 CNS; P388 leukemia; P388/ADR leukemia; SN12K1 renal.
Test in all cases: NCI tumour cell line growth inhibition, 48 h

In the case of `CC(C)C(N)=O`, the TGI in the test on LXFL 529 NSCLC, in the test on DLD-1 colon, with HOP-18 NSCLC, in the test on SNB-78 CNS and in the test with DMS 273 small cell lung was more than 5000 µM throughout.
On to `CC(C)C1=CC23CCC4C(C)(C(=O)O)CCCC4(C)C2CC1C1C(=O)N(c2ccccc2)C(=O)C13` (stereo not given), for which the TGI in the test with LXFL 529 NSCLC, in the test with DLD-1 colon, in the test with KM20L2 colon, in the test with HOP-18 NSCLC, in the test with XF 498 CNS and in the test on DMS 273 small cell lung was more than 100 µM each time.
As to `CC(=O)NC1=C[C@@H]([C@H]2COC(C)(C)O2)OC1=O`, the TGI in the test with DLD-1 colon, with P388 leukemia, with P388/ADR leukemia, with KM20L2 colon, with SN12K1 renal and in the test with HOP-18 NSCLC was more than 100 µM throughout. For the same compound, the TGI in the test on SNB-78 CNS, in the test with XF 498 CNS and in the test on DMS 273 small cell lung was more than 100 µM throughout.
On to `O=C1CCCCCCCCCCC1CN1CCCCC1` (stereo not given), for which the TGI in the test on LXFL 529 NSCLC, in the test on DLD-1 colon, in the test on KM20L2 colon, in the test with SNB-78 CNS, in the test with XF 498 CNS and in the test on DMS 273 small cell lung was more than 100 µM each time.
Turning to `CC(C)(C)C(=O)OC12/C(=N/O)CCCCCC1c1ccccc12` (stereo not given), the TGI in the test with LXFL 529 NSCLC is 30.3 µM; with DLD-1 colon it was 34.6 µM; in the test with KM20L2 colon it was 36.5 µM; in the test on HOP-18 NSCLC it was 34 µM; in the test with SNB-78 CNS it was 46.6 µM; in the test with DMS 273 small cell lung it was 34.3 µM.
As for `CCCCCCCCCCCCOCCCOP(=O)([O-])OCC[N+](C)(C)C`, the TGI was more than 95.8 µM in the test on DLD-1 colon; 97.7 µM with P388 leukemia; more than 100 µM in the test on P388/ADR leukemia; more than 100 µM with KM20L2 colon; more than 100 µM in the test with SN12K1 renal; more than 100 µM with HOP-18 NSCLC. In addition, the TGI in the test on SNB-78 CNS was more than 89.5 µM; with XF 498 CNS it was more than 89.4 µM; in the test on DMS 273 small cell lung, 35.5 µM.
With `C=C(OC1C(C)=C2C(C1OC(=O)CCCCCCC)C(C)(OC(C)=O)CC(OC(=O)CCC)C1(O)C2OC(=O)C1(C)O)/C(C)=C/C` (stereo not given), the TGI with DLD-1 colon was 16.4 µM; in the test with P388 leukemia, 0.993 µM; with P388/ADR leukemia it was 1.84 µM; with KM20L2 colon it was 1.23 µM; with SN12K1 renal, 0.0786 µM; in the test with HOP-18 NSCLC it was 9.19 µM. Also, the figures for the TGI in the test on SNB-78 CNS, in the test on XF 498 CNS and with DMS 273 small cell lung were 19.1 µM, 8.97 µM and 0.453 µM, respectively.
Take `CCOC(=O)CC1(c2cccc3ccccc23)OC(=O)c2ccccc21` (stereo not given): the TGI in the test on LXFL 529 NSCLC, in the test with DLD-1 colon, with KM20L2 colon, in the test with HOP-18 NSCLC, in the test on SNB-78 CNS and in the test with DMS 273 small cell lung was more than 100 µM throughout.
In the case of `c1csc(C[N+]23CN4CN(CN(C4)C2)C3)c1`, the TGI was 43.1 µM with LXFL 529 NSCLC, more than 100 µM in the test with DLD-1 colon, 55.7 µM with KM20L2 colon and 41.8 µM in the test with DMS 273 small cell lung.
